For assay [1], the system named is Alternaria solani. The experiment in a line: Alternaria solani / tomato / leaf disc (early blight). The assay is classed as in vivo. Particulars: foliar, inoculated 2 days after application, vs untreated control. The protocol: Example B1: Alternaria solani/Tomato/Leaf Disc (Early Blight) Tomato leaf disks cv. Baby are placed on agar in multiwell plates (24-well format) and sprayed with the formulated test compound diluted in water. The leaf disks are inoculated with a spore suspension of the fungus 2 days after application. The inoculated leaf disks are incubated at 23° C./21° C. (day/night) and 80% relative humidity under a light regime of 12 h/12 h (light/dark) in a climate cabinet and the activity of a compound is assessed as percent disease control compared to untreated when an appropriate level of disease damage appears on untreated check disk leaf disks (5-7 days after application).

Assay [2] concerns Glomerella lagenarium. The experiment in a line: Glomerella lagenarium (Colletotrichum lagenarium) / liquid culture (anthracnose). The assay is classed as cell-based. Particulars: Colletotrichum orbiculare, 72 h, photometrically 3-4 days after application, read-out: control of Glomerella lagenarium. The method, then:
Example B5: Glomerella Lagenarium (Colletotrichum Lagenarium)/Liquid Culture (Anthracnose) Conidia of the fungus from cryogenic storage are directly mixed into a nutrient broth (potato dextrose broth). After placing a DMSO solution of test compound into a microtiter plate (96-well format), the nutrient broth containing the fungal spores is added. The test plates are incubated at 24° C. and the inhibition of growth is measured photometrically 3-4 days after application.

The test system of assay [3] is Mycosphaerella graminicola. The assay can be described thus: Mycosphaerella graminicola (Septoria tritici) / liquid culture (Septoria blotch). The assay is classed as cell-based. The conditions noted are these: Zymoseptoria tritici, 96 h, photometrically 4-5 days after application, read-out: control of Mycosphaerella graminicola. Summed up: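 Conidia from cryogenic storage mixed into potato dextrose broth, added to test compound in DMSO. Plates incubated at 24° C; growth inhibition read photometrically 4-5 days after application.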

The subject of assay [4] is Mycosphaerella arachidis. The experiment in a line: Mycosphaerella arachidis (Cercospora arachidicola) / liquid culture (early leaf spot). The assay is classed as cell-based. Particulars: 96 h, photometrically 4-5 days after application, read-out: control of Mycosphaerella arachidis. The protocol:
Example B11: Mycosphaerella arachidis (Cercospora arachidicola)/Liquid Culture (Early Leaf Spot) Conidia of the fungus from cryogenic storage are directly mixed into a nutrient broth (potato dextrose broth). After placing a DMSO solution of test compound into a microtiter plate (96-well format), the nutrient broth containing the fungal spores is added. The test plates are incubated at 24° C. and the inhibition of growth is determined photometrically 4-5 days after application.

In assay [5] the test system is Monographella nivalis. The experiment in a line: Monographella nivalis (Microdochium nivale) / liquid culture (foot rot cereals). Particulars: 96 h, photometrically 4-5 days after application, read-out: control of Monographella nivalis. The assay is classed as cell-based. The method, then:
Example B10: Monographella nivalis (Microdochium nivale)/Liquid Culture (Foot Rot Cereals) Conidia of the fungus from cryogenic storage are directly mixed into a nutrient broth (potato dextrose broth). After placing a DMSO solution of test compound into a microtiter plate (96-well format), the nutrient broth containing the fungal spores is added. The test plates are incubated at 24° C. and the inhibition of growth is determined photometrically 4-5 days after application.

For ten compounds, pest or weed control and inhibition of growth results are on record in patent US20250325534A1, “MICROBIOCIDAL TETRAHYDROISOQUINOLINE DERIVATIVES” (SYNGENTA CROP PROTECTION AG, priority 2021, published 2025).

As usually defined, the pest or weed control is how far the test organism was held down. A higher pest or weed control goes with a strong effect.

Molecules are shown by their SMILES.

With `Cn1ncc(C2CN(C(=O)c3cc(-c4ccc(F)cc4F)on3)Cc3ccccc32)c1Cl` (centres unmarked) [Compound P-38, [4-(5-chloro-1-methyl-pyrazol-4-yl)-3,4-dihydro-1H-isoquinolin-2-yl]-[5-(2,4-difluorophenyl)isoxazol-3-yl]methanone], the pest or weed control at 200 ppm in assay [1] is no less than 80%.

Regarding `COC(=O)C1c2ccccc2C(c2cnn(C)c2)CN1C(=O)c1cc(-c2ccc(F)cc2F)on1` (centres unmarked) [Compound P-42, methyl 2-[5-(2,4-difluorophenyl)isoxazole-3-carbonyl]-4-(1-methylpyrazol-4-yl)-3,4-dihydro-1H-isoquinoline-1-carboxylate], the pest or weed control at 200 ppm in assay [1] was no less than 80%.

In assay [1], `Cn1ncc(C2CN(C(=O)c3cc(-c4ccc(F)cc4F)on3)Cc3ccccc32)c1F` (centres unmarked) [Compound P-52, [5-(2,4-difluorophenyl)isoxazol-3-yl]-[4-(5-fluoro-1-methyl-pyrazol-4-yl)-3,4-dihydro-1H-isoquinolin-2-yl]methanone] registered a pest or weed control at 200 ppm of no less than 80%.

Turning to `Cn1cc(C2CN(C(=O)c3nnc(-c4ccc(F)cc4)o3)Cc3ccccc32)cn1` (centres unmarked) [Compound P-56, [5-(4-fluorophenyl)-1,3,4-oxadiazol-2-yl]-[4-(1-methylpyrazol-4-yl)-3,4-dihydro-1H-isoquinolin-2-yl]methanone], in assay [1], the pest or weed control at 200 ppm is no less than 80%.

On to `Cn1cc(C2c3ccccc3CN(C(=O)c3cc(-c4ccc(F)cc4F)on3)C2(C)C)cn1` (centres unmarked) [Compound P-105, [5-(2,4-difluorophenyl)isoxazol-3-yl]-[3,3-dimethyl-4-(1-methylpyrazol-4-yl)-1,4-dihydroisoquinolin-2-yl]methanone], for which, in assay [1], the pest or weed control at 200 ppm was no less than 80%.

`Cc1nn(C)cc1C1CN(C(=O)c2cc(-c3ccc(F)cc3F)on2)Cc2ccccc21` (centres unmarked) [Compound P-121, [5-(2,4-difluorophenyl)isoxazol-3-yl]-[4-(1,3-dimethylpyrazol-4-yl)-3,4-dihydro-1H-isoquinolin-2-yl]methanone]: the inhibition of growth at 20 ppm in assay [2], in assay [3], in assay [4] and in assay [5] was no less than 80% throughout.

Take `Cn1cc(C2CN(C(=O)c3cc(-c4ccccc4)on3)Cc3cc(F)ccc32)cn1` (centres unmarked) [Compound P-138, [7-fluoro-4-(1-methylpyrazol-4-yl)-3,4-dihydro-1H-isoquinolin-2-yl]-(5-phenylisoxazol-3-yl)methanone]: the inhibition of growth at 20 ppm in assay [2], in assay [3], in assay [4] and in assay [5] was no less than 80% each time.

As to `Cn1cc(C2CN(C(=O)c3cc(-c4ccccc4)on3)Cc3ccccc32)cn1` (centres unmarked) [Compound P-205, [4-(1-methylpyrazol-4-yl)-3,4-dihydro-1H-isoquinolin-2-yl]-(5-phenylisoxazol-3-yl)methanone], the inhibition of growth at 20 ppm in assay [2], in assay [3], in assay [4] and in assay [5] was no less than 80% throughout.

As for `Cc1c(C2CN(C(=O)c3cc(-c4cccn4C)on3)Cc3ccccc32)cnn1C` (centres unmarked) [Compound P-231, [4-(1,5-dimethylpyrazol-4-yl)-3,4-dihydro-1H-isoquinolin-2-yl]-[5-(1-methylpyrrol-2-yl)isoxazol-3-yl]methanone], the inhibition of growth at 20 ppm in assay [2], in assay [3] and in assay [4] was no less than 80% each time.

For `Cc1c(C2CN(C(=O)c3nnc(C4CCC4)s3)Cc3ccccc32)cnn1C` (centres unmarked) [Compound P-232, (5-cyclobutyl-1,3,4-thiadiazol-2-yl)-[4-(1,5-dimethylpyrazol-4-yl)-3,4-dihydro-1H-isoquinolin-2-yl]methanone], the inhibition of growth at 20 ppm in assay [2], in assay [3] and in assay [4] was no less than 80% in each case.
